PMC7659177 (ACS omega, 2020)

Target: IP3R1 (HEK-IP3R1 cells) (Rattus norvegicus, UniProt P29994)
Experiment: Ca2+ release from stores of permeabilized cells, Mag-fluo […]
Format: cell-based

IP3R1 (HEK-IP3R1 cells), sequence (P29994 whole entry): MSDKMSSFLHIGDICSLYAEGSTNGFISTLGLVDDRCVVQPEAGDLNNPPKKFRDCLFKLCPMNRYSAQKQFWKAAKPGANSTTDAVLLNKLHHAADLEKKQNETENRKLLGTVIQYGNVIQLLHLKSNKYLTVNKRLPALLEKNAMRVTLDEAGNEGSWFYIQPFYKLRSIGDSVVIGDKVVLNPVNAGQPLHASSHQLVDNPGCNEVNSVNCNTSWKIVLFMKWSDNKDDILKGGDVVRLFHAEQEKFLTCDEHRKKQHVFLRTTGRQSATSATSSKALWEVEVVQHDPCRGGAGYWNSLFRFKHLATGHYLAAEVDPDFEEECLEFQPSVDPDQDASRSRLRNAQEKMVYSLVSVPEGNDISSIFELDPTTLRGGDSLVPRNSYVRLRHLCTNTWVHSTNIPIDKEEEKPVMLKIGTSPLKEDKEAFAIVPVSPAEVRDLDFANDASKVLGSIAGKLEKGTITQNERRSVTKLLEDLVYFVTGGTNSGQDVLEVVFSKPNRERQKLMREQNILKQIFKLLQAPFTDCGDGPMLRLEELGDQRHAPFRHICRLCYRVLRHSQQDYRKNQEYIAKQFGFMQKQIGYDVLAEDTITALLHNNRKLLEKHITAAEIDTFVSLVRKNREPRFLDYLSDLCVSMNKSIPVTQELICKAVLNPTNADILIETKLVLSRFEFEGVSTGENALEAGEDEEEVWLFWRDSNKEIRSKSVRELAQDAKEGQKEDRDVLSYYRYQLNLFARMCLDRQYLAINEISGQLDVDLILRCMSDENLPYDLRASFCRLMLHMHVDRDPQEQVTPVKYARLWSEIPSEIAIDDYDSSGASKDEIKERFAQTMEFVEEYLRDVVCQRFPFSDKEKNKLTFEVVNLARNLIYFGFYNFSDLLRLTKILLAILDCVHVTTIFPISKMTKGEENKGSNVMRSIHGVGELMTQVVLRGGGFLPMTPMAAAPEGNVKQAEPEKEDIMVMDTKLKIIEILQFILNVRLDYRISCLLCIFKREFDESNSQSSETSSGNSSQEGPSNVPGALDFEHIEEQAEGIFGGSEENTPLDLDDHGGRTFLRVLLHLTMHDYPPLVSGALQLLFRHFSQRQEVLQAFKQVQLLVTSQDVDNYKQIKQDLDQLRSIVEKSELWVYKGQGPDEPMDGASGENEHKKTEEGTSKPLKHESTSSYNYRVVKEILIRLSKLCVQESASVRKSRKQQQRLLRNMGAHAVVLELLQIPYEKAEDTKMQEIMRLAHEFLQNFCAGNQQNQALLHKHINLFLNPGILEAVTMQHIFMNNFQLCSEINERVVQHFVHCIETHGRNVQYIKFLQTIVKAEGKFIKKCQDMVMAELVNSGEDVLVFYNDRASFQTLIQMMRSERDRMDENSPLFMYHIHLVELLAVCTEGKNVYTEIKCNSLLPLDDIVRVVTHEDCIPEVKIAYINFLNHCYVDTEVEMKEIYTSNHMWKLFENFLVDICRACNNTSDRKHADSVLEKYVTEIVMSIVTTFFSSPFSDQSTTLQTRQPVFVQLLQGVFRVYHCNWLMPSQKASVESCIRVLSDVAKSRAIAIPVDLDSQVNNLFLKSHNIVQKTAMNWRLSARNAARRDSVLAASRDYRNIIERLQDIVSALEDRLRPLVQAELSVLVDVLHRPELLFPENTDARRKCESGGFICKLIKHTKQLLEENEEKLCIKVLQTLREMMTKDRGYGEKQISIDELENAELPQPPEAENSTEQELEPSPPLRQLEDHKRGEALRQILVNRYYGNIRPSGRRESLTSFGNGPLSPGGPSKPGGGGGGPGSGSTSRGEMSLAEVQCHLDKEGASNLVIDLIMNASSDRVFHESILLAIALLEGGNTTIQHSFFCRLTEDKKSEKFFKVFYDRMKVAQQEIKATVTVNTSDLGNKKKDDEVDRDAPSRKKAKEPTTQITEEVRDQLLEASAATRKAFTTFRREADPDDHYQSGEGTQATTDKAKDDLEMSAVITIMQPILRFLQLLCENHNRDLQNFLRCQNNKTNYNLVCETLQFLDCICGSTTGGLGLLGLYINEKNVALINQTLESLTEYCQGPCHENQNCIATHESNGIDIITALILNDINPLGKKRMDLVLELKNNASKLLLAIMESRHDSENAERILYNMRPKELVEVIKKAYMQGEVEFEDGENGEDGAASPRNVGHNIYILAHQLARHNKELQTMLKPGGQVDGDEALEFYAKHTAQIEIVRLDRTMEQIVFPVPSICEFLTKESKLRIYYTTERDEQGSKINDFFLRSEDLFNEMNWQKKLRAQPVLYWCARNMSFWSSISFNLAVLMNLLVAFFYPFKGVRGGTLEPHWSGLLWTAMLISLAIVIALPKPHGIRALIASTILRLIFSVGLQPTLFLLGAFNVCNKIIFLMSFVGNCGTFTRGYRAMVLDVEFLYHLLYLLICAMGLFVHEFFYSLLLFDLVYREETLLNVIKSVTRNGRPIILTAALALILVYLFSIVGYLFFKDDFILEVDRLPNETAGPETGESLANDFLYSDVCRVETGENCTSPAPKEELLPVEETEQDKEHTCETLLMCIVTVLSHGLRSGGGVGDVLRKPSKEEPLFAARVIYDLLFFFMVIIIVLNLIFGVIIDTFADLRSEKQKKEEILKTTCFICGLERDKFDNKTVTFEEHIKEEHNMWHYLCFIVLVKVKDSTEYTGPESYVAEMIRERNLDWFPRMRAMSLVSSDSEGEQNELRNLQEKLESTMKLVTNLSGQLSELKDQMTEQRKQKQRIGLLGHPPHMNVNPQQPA

EC50: 22 nM
Compound: Nc1ncnc2c1ncn2[C@@H]1O[C@H](CO)[C@@H](O[C@H]2[C@H](O)[C@H](O)[C@@H](OP(=O)(O)O)[C@H](OP(=O)(O)O)[C@H]2O)[C@H]1OP(=O)(O)O [compound 5, 3' -O-(1″ -D-chiro-Inosityl)adenosine 2’, 3″, 4″ -trisphosphate]
